# Patent US11779602B2, “Methods of use for CAR T cells” (ENDOCYTE, INC., priority 2018, dated 2023)
# Experiments:
# [1] = system: MDA-MB-231 tumors; assay: CAR-T/EC17 therapy, fixed dose and dose de-escalation, in mice bearing MDA-MB-231 tumors; type: in vivo; settings: E2-CAR-T 30 million cells, EC17 dose de-escalation
# From the text: The effect of EC17 dose de-escalation was investigated on the anti-tumor activity and the toxicity (body weight changes) of CAR-T therapy. Two different anti-fluorescein scFv were used for the CAR constructions (FIG. 1). The first construct of CAR contains the following domains: antiFL(FITC-E2)scFv-IgG4 hinge (CH2 (L235D, N297Q)-CH3)-CD28 TM-4-1BB-CD3z-T2A-EGFRt. The second construct of CAR contains the following domains: antiFL(FITC-4M5.3)scFv-IgG4 hinge (CH2 (L235D, N297Q)-CH3)-CD28 TM-4-1BB-CD3z-T2A-EGFRt. The nucleic acid sequence and amino acid sequence of the CAR of each construct are shown as SEQ ID NOS:1 to 4. Human T cells were isolated, activated and transduced with a lentiviral vector carrying the appropriate CAR gene. CD4+ T cells with the CAR-modification and CD8+ T cells with the CAR-modification were isolated and cultured separately in vitro for about 7 days. CD4+ CAR-T cells and CD8+ CAR-T cells were mixed at a 1:1 ratio before i.v. administration for animal studies.
# The second construct 4M5.3-CAR (antiFL(FITC-4M5.3) scFv-IgG4 hinge (CH2 (L235D, N297Q)-CH3)-CD28 TM-4-1BB-CD3z-T2A-EGFRt) was also evaluated. Mice bearing MDA-MB-231 tumors (150-250 mm^3) were used for in vivo studies to evaluate 4M5.3-CAR-T cells. […]
# [2] = system: HOS-FRα tumor; assay: CRS toxicity and sodium fluorescein rescue in HOS-FRα tumor-bearing mice; type: in vivo; settings: i.v. ~95 mg/kg on day 13, plasma 6 hours later
# Experimental: All animal care and use were performed according to NIH guidelines and in compliance with protocols approved by the Purdue University Animal Use and Care Committee. Female 4 to 5-week-old NOD/SCID gamma (NSG™) mice (stock number: 005557) were purchased from The Jackson Laboratory (Bar Harbor, Me.). Unless specifically indicated, all animals were maintained on a FA-deficient diet (TestDiet, St. Louis, Mo.) upon arrival and throughout the study. To establish subcutaneous xenografts, MDA-MB-231 and HOS-FRα were implanted in the right flank region at 2.5×10^6 and 1×10^6 cells per animal, respectively. For intravenous xenografts, THP1-FRβ cells were inoculated at 5×10^6 cells per animal. Subcutaneous tumors were measured 2-3 times per week with a caliper and calculated using the ellipsoidal formula (length×width^2)/2. […] All animal doses (CAR-T cells, EC17, sodium fluorescein) were given intravenously.
# Depending on the CAR-T cell dose and how EC17 is administered, tumor-bearing mice receiving FITC-specific CAR-T cells can experience severe CRS and varying degrees of body weight loss. Therefore, a CRS grading system (0-5 scale) was developed to empirically assess CRS toxicity from animals' gross morphology and social behavior to allow for better timing of CRS rescue. While grades 0 and 5 indicated normal (no CRS) or death (due to severe CRS), respectively, grades 1, 2, and 3-4 were considered mild, light-to-moderate, and severe CRS (FIG. 57A). In addition, all EC17 doses were intentionally given towards the end of any given day to allow potential CRS symptoms to develop overnight. On the days immediately following each EC17 dose, animals were scored and rescue agents such as sodium fluorescein, folic acid and leucovorin were used to mitigate CRS toxicity. In this particular instance, a batch of E2 CAR-T cells with a high EGFRt+CD4/CD8 ratio (˜93:7) was given to HOS-FRα tumor-bearing mice at a mixture of ˜2.5 million CD8 and ˜33 million CD4 on day 0 (FIG. 57B). […]
smiles,measurement,setting,value
"O=C([O-])c1ccccc1-c1c2ccc(=O)cc-2oc2cc([O-])ccc12.[Na+].[Na+] [sodium fluorescein, reference compound]",antitumor activity after NaFL rescue,[1],antitumor activity is maintained
same,effect of rescue on CAR-T cell derived human cytokines,[2],acted very quickly to reduce CAR-T cell derived human cytokines
